# From patent US20230073855A1, “SOFT GEL CAPSULE COMPRISING A SELECTIVE ESTROGEN RECEPTOR MODULATOR” (PHARMATHEN S.A., priority 2018, published 2023)
# Key:
# physchem [1] = settings: thermodynamic from solid
# Method: (§1) In order to investigate drug solubility in SMEDDS, excess amount of drug was added to few mL of each excipient, placed in small bottles and the mixture was vortexed, in room temperature to facilitate solubilization.
# Tween 80® and Tween 20® were used as surfactants, Transcutol® along with PG 200 and PEG 600 were used as co-surfactants.
# physchem [2] = settings: oil or lipid, thermodynamic from solid, Dubcare GPE 810 ®/(Tween 80 ®/PEG 600)
# Method: as §1
# The solubility of Dubcare GPR 810® in different oil/(S/CS) was tested. […] The S/CS ration was kept constant at 1/1.
# physchem [3] = settings: thermodynamic from solid; remark: listed apart in the source
# Method: The solubility is calculated by the API quantity dissolved in 5 mL of each excipient.
# [4] = cited from earlier work
structure (smiles),measurement,setting,value
OCCOc1ccc(/C(=C(/CCCl)c2ccccc2)c2ccccc2)cc1 [Ospemifene],solubility,"physchem [1]; organic solvent or mixture, Tween 20 ®/Transcutol ®, ratio S/CS 1:1",210 mg/mL
same,solubility,"physchem [1]; organic solvent or mixture, Tween 20 ®/Transcutol ®, ratio S/CS 1:2",240 mg/mL
same,solubility,"physchem [1]; organic solvent or mixture, Tween 20 ®/Transcutol ®, ratio S/CS 2:1",190 mg/mL
same,solubility,"physchem [1]; surfactant/co-surfactant mixture Tween 20/PG 200, S/CS 1:1, organic solvent or mixture, Tween 20 ®/PG 200, ratio S/CS 1:1",110 mg/mL
same,solubility,"physchem [1]; surfactant/co-surfactant mixture Tween 20/PG 200, S/CS 1:2, organic solvent or mixture, Tween 20 ®/PG 200, ratio S/CS 1:2",120 mg/mL
same,solubility,"physchem [1]; surfactant/co-surfactant mixture Tween 20/PG 200, S/CS 2:1, organic solvent or mixture, Tween 20 ®/PG 200, ratio S/CS 2:1",120 mg/mL
same,solubility,"physchem [1]; surfactant/co-surfactant mixture Tween 20/PG 600, S/CS 1:1, organic solvent or mixture, Tween 20 ®/PG 600, ratio S/CS 1:1",140 mg/mL
same,solubility,"physchem [1]; surfactant/co-surfactant mixture Tween 20/PG 600, S/CS 1:2, organic solvent or mixture, Tween 20 ®/PG 600, ratio S/CS 1:2",140 mg/mL
same,solubility,"physchem [1]; surfactant/co-surfactant mixture Tween 20/PG 600, S/CS 2:1, organic solvent or mixture, Tween 20 ®/PG 600, ratio S/CS 2:1",140 mg/mL
same,solubility,"physchem [1]; surfactant/co-surfactant mixture Tween 80/PEG 600, S/CS 1:1, organic solvent or mixture, Tween 80 ®/PEG 600, ratio S/CS 1:1",140 mg/mL
same,solubility,"physchem [1]; surfactant/co-surfactant mixture Tween 80/PEG 600, S/CS 1:2, organic solvent or mixture, Tween 80 ®/PEG 600, ratio S/CS 1:2",120 mg/mL
same,solubility,"physchem [1]; surfactant/co-surfactant mixture Tween 80/PEG 600, S/CS 2:1, organic solvent or mixture, Tween 80 ®/PEG 600, ratio S/CS 2:1",140 mg/mL
same,solubility,"physchem [2]; ratio oil/(S/CS) 1:9, S/CS 1/1",160 mg/mL
same,solubility,"physchem [2]; ratio oil/(S/CS) 2:8, S/CS 1/1",150 mg/mL
same,solubility,"physchem [2]; ratio oil/(S/CS) 3:7, S/CS 1/1",150 mg/mL
same,solubility,"physchem [2]; ratio oil/(S/CS) 7:3, S/CS 1/1",80 mg/mL
same,solubility,"physchem [2]; ratio oil/(S/CS) 8:2, S/CS 1/1",60 mg/mL
same,solubility,"physchem [3]; Castor oil #1 (neat excipient), oil or lipid, in Castor oil #1, room temperature",60 mg/mL
same,solubility,"physchem [3]; Castor oil #2 (neat excipient), oil or lipid, in Castor oil #2, room temperature",60 mg/mL
same,solubility,"physchem [3]; Dubcare GPE 810 (neat excipient), organic solvent or mixture, in Dubcare GPE 810 ®, room temperature",180 mg/mL
same,solubility,"physchem [3]; Ethyl Oleate (neat excipient), oil or lipid, in Ethyl Oleate, room temperature",20 mg/mL
same,solubility,"physchem [3]; Isopropyl myristate (neat excipient), oil or lipid, in Isopropyl myristate, room temperature",150 mg/mL
same,solubility,"physchem [3]; Labrafac Lipophile (neat excipient), oil or lipid, in Labrafac Lipophile ®, room temperature",100 mg/mL
same,solubility,"physchem [3]; Miglyol 812 (neat excipient), oil or lipid, in Miglyol 812, room temperature",60 mg/mL
same,solubility,"physchem [3]; Oleic acid (neat excipient), oil or lipid, in Oleic acid, room temperature",10 mg/mL
same,solubility,"physchem [3]; Propylene glycol (neat excipient), organic solvent or mixture, in Propylene glycol, room temperature",50 mg/mL
same,solubility,"physchem [3]; Sesame oil (neat excipient), oil or lipid, in Sesame oil, room temperature",60 mg/mL
same,solubility,"physchem [3]; Transcutol (neat excipient), organic solvent or mixture, in Transcutol ®, room temperature",280 mg/mL
same,solubility,"physchem [3]; Tween 20 (neat excipient), organic solvent or mixture, in Tween 20 ®, room temperature",150 mg/mL
same,solubility,"physchem [3]; Tween 80 (neat excipient), organic solvent or mixture, in Tween 80 ®, room temperature",100 mg/mL
same,solubility,"physchem [3]; Tyloxapol (neat excipient), organic solvent or mixture, in Tyloxapol, room temperature",140 mg/mL
same,solubility,"physchem [3]; organic solvent or mixture, in Kolliphpor ® RH40, room temperature",180 mg/mL
same,solubility,"physchem [3]; organic solvent or mixture, in PG 200, room temperature",100 mg/mL
same,solubility,"physchem [3]; organic solvent or mixture, in PG 600, room temperature",160 mg/mL
same,Time to peak median serum concentration,[4]; fasting postmenopausal women,approximately two
same,Increase of bioavailability with food intake,"[4]; with food intake, EP1713458",two- to three
